Our source for the TGI, GI50 and outcome values is PubChem BioAssay (NCI).

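Step 1: Grow cells in 96-well plates. Step 2: Expose to compound for 48 hours at 5 concentrations. Step 3: Interpolate endpoints linearly; if unreached, use highest concentration. Abbreviation: GI50, concentration required for 50% inhibition of growth. At the TGI there is no net growth.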 Calls of active or inactive are those of the source. Cut-off read from the data, not from the text of the source: active = GI50 below about 0.43 µM; inactive = the rest.

Assay in all cases: inhibition of tumour cell growth, NCI panel, 48 h
Test [1] has as its system DMS 114 small cell lung.
Test [2] has as its system DMS 273 small cell lung.
Test [3] deals with LXFL 529 NSCLC.
For test [4], the system named is M19-MEL melanoma.
Test [5] relates to XF 498 CNS.
Test [6] deals with SNB-78 CNS.
Test [7] relates to DU-145 prostate.
Test [8] has as its system MDA-MB-231 breast.
Test [9] concerns T-47D breast.

As to `C=C=C(C(=O)OC)S(=O)c1ccc([N+](=O)[O-])cc1[N+](=O)[O-]` (stereo unspecified), the TGI in test [1] is 45.6 µM; in test [2], 64.1 µM; in test [3], 38 µM; in test [4], 62 µM; in test [5], more than 71.2 µM.

With `O=C1CCC(O)=C1O`, the TGI in test [1], in test [2], in test [3], in [4] and in test [5] was more than 100 µM in each case.

Consider `Nc1nc(CCC(=O)Nc2cccc(C(F)(F)F)c2)cc(-c2ccc3ccccc3c2)n1`, for which the TGI in [1], in [2], in [3], in [4], in [6] and in test [5] was more than 100 µM each time.

In the case of `CCOC(=O)COS(=O)(=O)C(F)(F)F`, the TGI in test [1] is 31.7 µM; in [2] it was 36.7 µM; in test [3] it was more than 100 µM; in test [4], more than 100 µM; in [6] it was more than 100 µM; in test [5], more than 100 µM.

Consider `Cc1nn(-c2ccccc2)c(-c2ccccc2[N+](=O)[O-])c1CC#N`, for which the TGI in test [1], in test [2], in test [3], in test [4], in test [6] and in test [5] was more than 100 µM in each case.

`COc1cc(Br)c(C=Nc2cccc3ccc(OS(=O)(=O)c4cccc([N+](=O)[O-])c4)cc23)cc1OC`: the TGI in [1] was more than 100 µM; in [3], more than 100 µM; in test [4], more than 100 µM; in [6], 72.9 µM.

Take `CC(=O)OC1[C@H]2c3cc4c(cc3CN3CCC(=C[C@@H]1O)C23)OCO4` (stereo partly specified): the TGI in test [2], in test [3], in [4] and in test [6] was more than 100 µM throughout.

In the case of `COC(=O)c1nc(N)[nH]c(=O)c1CCCCCc1c(C(=O)OC)nc(N)[nH]c1=O`, the TGI in [1], in test [2], in [3], in [4], in test [6] and in [5] was more than 50 µM throughout.

As to `COC(=O)c1c(-c2ccccc2)sc(-c2cccc3ccccc23)c1C(=O)OC`, the TGI in [2], in test [3], in [4] and in test [6] was more than 100 µM throughout.

For `CCOc1ccccc1NC(=O)CCc1nc(=S)[nH][nH]1`, the TGI in test [1], in [3], in test [4] and in [6] was more than 100 µM in each case.

As to `O=[N+]([O-])c1ccc2c(c1)[O][Sn][O]2`, the GI50 in test [1] was 66.2 µg/mL; in test [2], 18.8 µg/mL; in [4] it was 36.9 µg/mL; in test [6] it was 124 µg/mL. Besides, the TGI in test [1], in test [2], in test [4] and in test [6] was more than 150 µg/mL each time. Moreover, the result in [3] and in test [5] was inactive.

For `COC(=O)C1=C(C(=O)OC)SC(=C(Cl)C(=S)Sc2ccccc2N)S1`, the GI50 in test [7] was 4.14 µM; in test [8] it was 16.6 µM; in [9] it was 39.6 µM. For the same compound, the TGI in test [7] is 43.7 µM; in test [8] it was 42.9 µM; in test [9], more than 100 µM.

On to `S=c1nc(-c2cccnc2)[nH][nH]1`, for which the TGI in [1], in test [2], in [3], in test [6] and in [5] was more than 100 µM throughout.

For the compound `C=C1C(=O)OC2/C=C(\C=O)CC/C=C(\C)C(O)C[C@@H]12` (stereo partly specified), the TGI is 26.6 µM in test [1]; 15.7 µM in test [2]; 13.6 µM in [3]; 19.2 µM in test [4]; 18.8 µM in test [6]; 16.1 µM in test [5].

Take `BrC1(Br)C2/C=C\CCCCC21` (stereo unspecified): the TGI in test [2], in test [3], in test [4], in test [6] and in test [5] was more than 100 µM throughout.

In the case of `C[C-](O)O.O/C(=C\[C-](O)c1ccccc1)c1ccccc1.O/C(=C\[C-](O)c1ccccc1)c1ccccc1.[Nd+3]` (stereo unspecified), the GI50 was 17.9 µM in test [1]; 3.25 µM in [2]; 5.79 µM in [3]; 12.2 µM in [4]; 13.8 µM in test [5]. Besides, the TGI in test [1] is 57 µM; in test [2], 16.1 µM; in [3], more than 100 µM; in [4] it was 42.7 µM; in test [5] it was 36.2 µM.

Turning to `O=C1CC(=O)OC(c2ccc([N+](=O)[O-])cc2)O1`, the GI50 in test [7] was 1.63 µM; in test [8], 2.21 µM; in [9], 1.93 µM. Further, the TGI in [7] stood at 3.2 µM; in [8] it was 5.09 µM; in [9], 4.1 µM.

Regarding `N#CC(NNC(=O)c1ccccc1O)c1cccc(O)c1` (stereo unspecified), the TGI in [1] was 11.1 µM; in test [2], more than 100 µM; in [3], more than 100 µM; in test [6], more than 100 µM.

With `O=C(OC[C@H]1O[C@@H](OC(=O)c2cc(O)c(O)c(O)c2)[C@H](OC(=O)c2cc(O)c(O)c(O)c2)[C@@H](OC(=O)c2cc(O)c(O)c(O)c2)[C@@H]1OC(=O)c1cc(O)c(O)c(O)c1)c1cc(O)c(O)c(O)c1`, the TGI was 15.9 µM in test [1]; 7.07 µM in test [2]; more than 100 µM in test [3]; 83.2 µM in test [4]; 80.3 µM in test [6]; 22.5 µM in [5].

As for `C[N+]1(C)C/C(=C\c2ccncc2)C(=O)/C(=C/c2ccncc2)C1`, the TGI in test [1], in test [2], in [3], in test [4] and in [6] was more than 100 µM in each case.

For `O=C1c2ccccc2-n2c1nc1ccccc1c2=O`, the TGI in test [7] was 24 µM; in [8] it was more than 100 µM; in [9], 87.4 µM.
